Assay type in all cases: biochemical
Experiment [1] deals with T1, CpsG (HIS-CpsG) (Escherichia coli, UniProt P24175).
T1 construct: gene manB; His-tagged, recombinant from E. coli BL21(DE3), Ni-NTA and size exclusion; tag terminus printed as C-terminal in Methods
T1 sequence (P24175 1-456): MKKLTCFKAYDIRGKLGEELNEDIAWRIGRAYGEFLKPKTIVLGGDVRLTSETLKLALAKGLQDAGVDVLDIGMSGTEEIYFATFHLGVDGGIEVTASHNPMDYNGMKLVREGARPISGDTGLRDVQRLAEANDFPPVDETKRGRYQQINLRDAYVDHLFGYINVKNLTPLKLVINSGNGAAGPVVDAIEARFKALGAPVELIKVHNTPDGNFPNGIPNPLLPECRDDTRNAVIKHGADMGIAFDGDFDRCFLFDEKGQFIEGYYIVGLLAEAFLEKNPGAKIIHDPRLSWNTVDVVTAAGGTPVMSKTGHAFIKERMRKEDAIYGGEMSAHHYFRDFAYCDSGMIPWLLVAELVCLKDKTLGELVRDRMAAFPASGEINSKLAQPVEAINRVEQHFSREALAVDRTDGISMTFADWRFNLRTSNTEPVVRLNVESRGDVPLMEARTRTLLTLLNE
The experiment can be described thus: Glc1P conversion with and without cofactor by HPAEC-PAD. The note with it: 0.2 mg/mL Glc1,6diP, 0.66 mg/ml Glc1P, 10 mM Tris-HCl pH 8.0, 37 °C, 20 min.

In experiment [2] the target is T2, CCA00034 (HIS-CCA00034) (Chlamydia caviae, UniProt Q823R2).
T2 construct: gene CCA_00344; His-tagged, recombinant from E. coli BL21(DE3), Ni-NTA and size exclusion; tag printed as amino-terminal in Results but C-terminal in Methods; tag not reported cut
T2 sequence (Q823R2 entry or part of it): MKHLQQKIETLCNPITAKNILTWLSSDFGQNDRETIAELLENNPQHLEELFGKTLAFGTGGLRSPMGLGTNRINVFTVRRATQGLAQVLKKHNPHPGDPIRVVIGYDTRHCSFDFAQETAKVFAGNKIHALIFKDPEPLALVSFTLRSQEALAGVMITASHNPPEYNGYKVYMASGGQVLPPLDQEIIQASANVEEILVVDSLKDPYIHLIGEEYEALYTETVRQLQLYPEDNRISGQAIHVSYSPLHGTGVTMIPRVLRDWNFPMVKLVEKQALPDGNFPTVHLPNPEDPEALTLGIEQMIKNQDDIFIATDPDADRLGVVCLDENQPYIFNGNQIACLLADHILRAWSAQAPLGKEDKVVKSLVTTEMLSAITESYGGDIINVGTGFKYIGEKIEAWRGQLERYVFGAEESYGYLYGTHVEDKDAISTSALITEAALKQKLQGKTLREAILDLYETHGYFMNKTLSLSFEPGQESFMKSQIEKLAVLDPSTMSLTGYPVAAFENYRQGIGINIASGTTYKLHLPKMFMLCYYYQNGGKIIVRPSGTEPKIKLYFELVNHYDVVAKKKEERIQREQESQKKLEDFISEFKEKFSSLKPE
Description: conversion to Glc6P by HPAEC-PAD. The conditions noted are these: 0.66 mg/ml Glc1P, 0.1 mg/mL enzyme, 0.2 mg/mL Glc1,6diP (not required), 10 mM Tris-HCl pH 8.0, 37 °C, 20 min.

Experiment [3] concerns the target T1, CpsG (HIS-CpsG). The experiment can be described thus: conversion to Glc6P by HPAEC-PAD. The conditions noted are these: 0.66 mg/ml Glc1P, 0.1 mg/mL enzyme, 0.2 mg/mL Glc1,6diP, 10 mM Tris-HCl pH 8.0, 37 °C, 20 min.
The target of a further experiment is T3, CT815 (HIS-CT815) (Chlamydia trachomatis, UniProt B0B944).
T3 construct: gene glmM; His-tagged, in pET28a, recombinant from E. coli BL21(DE3), Ni-NTA and size exclusion; tag printed as amino-terminal in Results but C-terminal in Methods
T3 sequence (B0B944 whole entry): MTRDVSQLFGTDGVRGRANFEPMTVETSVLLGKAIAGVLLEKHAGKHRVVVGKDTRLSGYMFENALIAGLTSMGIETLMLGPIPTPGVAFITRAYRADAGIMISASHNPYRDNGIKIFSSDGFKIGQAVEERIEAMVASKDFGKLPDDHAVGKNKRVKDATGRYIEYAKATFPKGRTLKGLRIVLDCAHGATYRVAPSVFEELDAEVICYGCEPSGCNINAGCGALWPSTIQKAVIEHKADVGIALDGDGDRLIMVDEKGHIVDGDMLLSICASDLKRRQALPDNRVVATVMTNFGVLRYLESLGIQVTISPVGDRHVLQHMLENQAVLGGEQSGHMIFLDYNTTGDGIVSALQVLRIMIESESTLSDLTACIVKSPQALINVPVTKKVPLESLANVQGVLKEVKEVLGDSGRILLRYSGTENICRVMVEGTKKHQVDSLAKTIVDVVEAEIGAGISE
The experiment can be described thus: conversion to Glc6P by HPAEC-PAD. The note with it: 0.66 mg/ml Glc1P, 0.1 mg/mL enzyme, 0.2 mg/mL Glc1,6diP, 10 mM Tris-HCl pH 8.0, 37 °C, 20 min.

In experiment [4] the target is T2, CCA00034 (HIS-CCA00034). Description: reverse reaction to Glc1P by HPAEC-PAD. The note with it: 0.33 mg/ml Glc6P, 0.1 mg/mL enzyme, 0.2 mg/mL Glc1,6diP, 10 mM Tris-HCl pH 8.0, 37 °C, 20 min.

SMILES strings stand for the structures.

Consider `O=P(O)(O)OC[C@H]1O[C@H](OP(=O)(O)O)[C@H](O)[C@@H](O)[C@@H]1O` [Glc1,6diP], for which, on CpsG (HIS-CpsG) [1], the “Glc1P conversion with and without cofactor by HPAEC-PAD” value was “CpsG required the presence of Glc1,6diP for optimal conversion of Glc1P into Glc6P”.

For the molecule `O=P(O)(O)O[C@H]1O[C@H](CO)[C@@H](O)[C@H](O)[C@H]1O` [Glc1P], the results for the “conversion to Glc6P by HPAEC-PAD” value on CCA00034 (HIS-CCA00034) [2], on CpsG (HIS-CpsG) [3] and on CT815 (HIS-CT815) were “Incubation of Glc1P in the presence of HIS-CCA00034 led to its full conversion into Glc6P”, “HIS-CpsG required the presence of Glc1,6diP to convert Glc1P into Glc6P” and “only low levels of Glc6P were detected in the presence of HIS-CT815”, respectively.

With `O=P(O)(O)OC[C@H]1OC(O)[C@H](O)[C@@H](O)[C@@H]1O` (some centres unmarked) [Glc6P], at CCA00034 (HIS-CCA00034) [4], the “reverse reaction to Glc1P by HPAEC-PAD” value was “very low amounts of Glc1P were detected after incubation with HIS-CCA00034 or HIS-CpsG”.

Source of the values: doi:10.1101/2020.10.11.335026v1, “Acquisition of a type 3 secretion signal in an housekeeping enzyme shaped glycogen metabolism in Chlamydia” (biorxiv, 2020).
